From PMC8286840, “Identifying SARS-CoV-2 antiviral compounds by screening for small molecule inhibitors of Nsp3 papain-like protease” (Biochemical Journal, 2021)
Where “and” joins values, the source holds several entries; their conditions need not be identical. Equal entries are not always repeated. Entries after “also recorded” stand apart in the source; their conditions may differ. Where two headings read alike, the source gives them in different places.

Legend:
[1] = molecular target: T1, SARS-CoV-2 PLpro (nsp3 1564–1878) (Severe acute respiratory syndrome coronavirus 2, UniProt P0DTD1); experiment: biochemical; conditions: read-out: % of control remaining
[2] = molecular target: T1, SARS-CoV-2 PLpro (nsp3 1564–1878); experiment: biochemical; conditions: read-out: % of control remaining; remark: listed apart in the source
3CLpro (nsp5) = 3CLpro (nsp5) (Severe acute respiratory syndrome coronavirus 2, UniProt P0DTD1); format: biochemical, SARS-CoV-2
SARS-CoV-2 PLpro [3] = molecular target: T2, SARS-CoV-2 PLpro (Severe acute respiratory syndrome coronavirus 2, UniProt P0DTD1); format: biochemical; conditions: 3.75 µM and 10 µM compound, 0.5 µM enzyme, 5 h RT
SARS-CoV-2 = experiment: microbe, parasite or virus in culture; format: cell-based
SARS-CoV-2 PLpro [4] = molecular target: T2, SARS-CoV-2 PLpro; format: biochemical; conditions: 10 µM inhibitor, 50 nM PLpro, 1 µM substrate, 1 h 25°C
VERO E6 cells [5] = experiment: Cytotoxicity in the cell culture-based assay
SARS-CoV-2 PLpro [6] = molecular target: T2, SARS-CoV-2 PLpro; format: biochemical; conditions: 10 µM inhibitor, 50 nM PLpro, 1 µM substrate, 1 h 25°C; remark: listed apart in the source
[7] = molecular target: T1, SARS-CoV-2 PLpro (nsp3 1564–1878); experiment: biochemical; format: biochemical; conditions: for IC50: fluorescent-based assay; for inhibition at 1.25 µM: read-out: Inhibition (%) 1.25 µM; for inhibition at 3.75 µM: read-out: Inhibition (%) 3.75 µM
PLpro from SARS-CoV-1 = conditions: cited from earlier work
[8] = molecular target: T1, SARS-CoV-2 PLpro (nsp3 1564–1878); experiment: biochemical; design: FRET-quenched peptide (Pro3) cleavage by PLpro, 10 min pre-incubation, slope over 20 min, normalised to no-compound control; conditions: low concentration screen, read-out: % of control remaining
[9] = molecular target: T1, SARS-CoV-2 PLpro (nsp3 1564–1878); experiment: biochemical; design: FRET-quenched peptide (Pro3) cleavage by PLpro, 10 min pre-incubation, slope over 20 min, normalised to no-compound control; conditions: high concentration screen, read-out: % of control remaining
VERO E6 cells [10] = system: VERO E6 cells
SARS-CoV-1/-2 PLpro = conditions: non-covalent inhibitor; cited from earlier work
[11] = Severe acute respiratory syndrome coronavirus 2, Vero C1008, VERO E6 cells, compound alone, read-out: EC50 viral proliferation
[12] = Severe acute respiratory syndrome coronavirus 2, Vero C1008, VERO E6 cells, compound plus 0.5 µM remdesivir, read-out: EC50 viral proliferation with remdesivir
[13] = VERO E6 cells, compound alone, read-out: EC50 viral proliferation
[14] = screen, 1.25 µM compound, 1.75 µM enzyme, 20 µM substrate
[15] = screen, 1.25 µM compound, number after the slash is the control without compound
[16] = screen, 3.75 µM compound, 1.75 µM enzyme, 20 µM substrate
[17] = screen, 3.75 µM compound, number after the slash is the control without compound
[18] = screen, normalized to control without compound, Table S1

## C[N+]1(C)CCc2cc3c(cc2[C@H]1[C@@H]1OC(=O)c2c1ccc1c2OCO1)OCO3 [(-)-Bicuculline methbromide, 1(S), 9(R)]
[1]
  remaining activity at 1.25 µM: 100%
[2]
  remaining activity at 3.75 µM: 103%

## Cc1cccc2c3c(ccc12)C1=C(C(=O)C3=O)[C@@H](C)CO1 [Dihydrotanshinone I]
3CLpro (nsp5); 3 and 10 µM compound
  Inhibition of 3CLpro activity (gel-based): did not inhibit
SARS-CoV-2 PLpro [3]
  Inhibition of PLpro cleavage of the substrate (gel-based): show inhibition; also recorded: strongly inhibited
SARS-CoV-2; [11]
  EC50: 8 µM
SARS-CoV-2; [12]
  EC50: 5.35 µM
SARS-CoV-2; [13]
  EC50: 8.15 µM
SARS-CoV-2 PLpro [4]
  Inhibition of pro-ISG15 cleavage (deISGylating activity): potent inhibition
VERO E6 cells [5]
  Cytotoxicity: did not exhibit much cytotoxicity
SARS-CoV-2 PLpro [6]
  Inhibition of K48-linked Ub3 cleavage (DUB activity): potent inhibition; also recorded: inhibited strongly
[7]
  IC50: 586 nM
[7]; listed as dihydrotanshione I
  IC50: 590 nM
[7]; screen hits, Table 1
  Z score: −4.52
[7]; [14]
  inhibition at 1.25 µM: 0%
[7]; [15]
  slope value (of slope value/control) 1.25 µM: 449
[7]; [16]
  inhibition at 3.75 µM: 33%
[7]; [17]
  slope value (of slope value/control) 3.75 µM: 329
PLpro from SARS-CoV-1
  Inhibition of SARS-CoV-1 PLpro: inhibit

## Cc1ccc(NC2=CC(=O)c3sc(C)nc3C2=O)cc1 [Cdk4 Inhibitor III]
[8]; Well no.=2408
  remaining activity at 1.25 µM: 81.1%
3CLpro (nsp5); 3 and 10 µM compound
  Inhibition of 3CLpro activity (gel-based): did not inhibit
SARS-CoV-2 PLpro [3]
  Inhibition of PLpro cleavage of the substrate (gel-based): show inhibition; also recorded: strongly inhibited
SARS-CoV-2; [13]
  EC50: 3.4 µM
[7]
  IC50: 390 nM and 393 nM
[7]; screen hits, Table 1
  Z score: −5.34
[7]; [14]
  Inhibition (%) 1.25 µM: 19%
[7]; [15]
  slope value (of slope value/control) 1.25 µM: 367
[7]; [16]
  Inhibition (%) 3.75 µM: 39%
[7]; [17]
  slope value (of slope value/control) 3.75 µM: 302
[9]; Well no.=2408
  remaining activity at 3.75 µM: 61.4%
VERO E6 cells [10]
  Cytotoxicity: cytotoxic in the low micromolar range

## Cc1cc2nc3c(=O)[nH]c(=O)nc-3n(C)c2cc1C=O [Ro 08-2750, 2,3,4,10-Tetrahydro-7,10-dimethyl-2,4-dioxobenzo[g]pteridine-8-carboxaldehyde]
3CLpro (nsp5); 3 and 10 µM compound
  Inhibition of 3CLpro activity (gel-based): did not inhibit
SARS-CoV-2 PLpro [3]
  Inhibition of PLpro cleavage of the substrate (gel-based): show inhibition; also recorded: strongly inhibited
SARS-CoV-2; [11]
  EC50: 20 µM
SARS-CoV-2; [12]
  EC50: 22.7 µM
SARS-CoV-2 PLpro [4]
  Inhibition of pro-ISG15 cleavage (deISGylating activity): moderate inhibition
SARS-CoV-2 PLpro [6]
  Inhibition of K48-linked Ub3 cleavage (DUB activity): moderate inhibition; also recorded: moderately
[7]
  IC50: 530 nM and 532 nM
[7]; screen hits, Table 1
  Z score: −5.79
[7]; [14]
  inhibition at 1.25 µM: 19%
[7]; [15]
  slope value (of slope value/control) 1.25 µM: 366
[7]; [16]
  inhibition at 3.75 µM: 42%
[7]; [17]
  slope value (of slope value/control) 3.75 µM: 287
VERO E6 cells [10]
  Cytotoxicity: some cell toxicity at higher concentrations

## CC1(C)CCC2=C(O1)c1ccccc1C(=O)C2=O [beta-Lapachone]
3CLpro (nsp5)
  Inhibition of 3CLpro activity (gel-based): did not inhibit
SARS-CoV-2 PLpro [3]
  Inhibition of PLpro cleavage of the substrate (gel-based): show inhibition; also recorded: strongly inhibited
SARS-CoV-2; [11]
  EC50: 4.39 µM
SARS-CoV-2 PLpro [4]
  Inhibition of pro-ISG15 cleavage (deISGylating activity): potent inhibition
VERO E6 cells [5]
  Cytotoxicity: cytotoxic in the low micromolar range
SARS-CoV-2 PLpro [6]
  Inhibition of K48-linked Ub3 cleavage (DUB activity): potent inhibition; also recorded: inhibited strongly
[7]
  IC50: 610 nM
[7]; screen hits, Table 1
  Z score: −4.66
[7]; [14]
  inhibition at 1.25 µM: 7%
[7]; [15]
  slope value (of slope value/control) 1.25 µM: 420
[7]; [16]
  inhibition at 3.75 µM: 34%
[7]; [17]
  slope value (of slope value/control) 3.75 µM: 322

## O=C1c2ccccc2-c2nc3nnnn3nc21 [PDK1/Akt/Flt Dual Pathway Inhibitor]
[8]; Well no.=2319
  remaining activity at 1.25 µM: 11.1%
SARS-CoV-2 PLpro [3]
  Inhibition of PLpro cleavage of the substrate (gel-based): show inhibition; also recorded: strongly inhibited
[7]
  IC50: 265 nM
[7]; listed as PDK/Akt/Flt dual pathway inhibitor
  IC50: 260 nM
[7]; screen hits, Table 1
  Z score: −14.53
[7]; [14]
  Inhibition (%) 1.25 µM: 89%
[7]; [15]
  slope value (of slope value/control) 1.25 µM: 50
[7]; [16]
  Inhibition (%) 3.75 µM: 100%
[7]; [17]
  slope value (of slope value/control) 3.75 µM: 0
[7]; screen, Table S1
  Z score: -14.531
[7]; [18]
  Normalized activity High (3.75 µM): -0.02621
  Normalized activity Low (1.25µM): 0.111
[9]; Well no.=2319
  remaining activity at 3.75 µM: -2.62%

## Cc1ccc(N)cc1C(=O)N[C@H](C)c1cccc2ccccc12 [GRL-0617]
SARS-CoV-1/-2 PLpro
  Effectiveness against SARS-CoV-1/-2 PLpro: effective
SARS-CoV-2; read-out: EC50 viral proliferation
  EC50: 32.6 µM
SARS-CoV-2; read-out: EC50 viral proliferation with remdesivir
  EC50: 32.2 µM
VERO E6 cells [10]
  Cytotoxicity: some cell toxicity at higher concentrations

## CC(C)=CC[C@@H](O)C1=CC(=O)c2c(O)ccc(O)c2C1=O [shikonin]
[8]; Well no.=3172
  remaining activity at 1.25 µM: 86.4%
[8]; Well no.=6398
  remaining activity at 1.25 µM: 96.8%
SARS-CoV-2 PLpro [4]
  Inhibition of pro-ISG15 cleavage (deISGylating activity): did not inhibit
SARS-CoV-2 PLpro [6]
  Inhibition of K48-linked Ub3 cleavage (DUB activity): did not inhibit and not
[9]; Well no.=3172
  remaining activity at 3.75 µM: 82.5%
[9]; Well no.=6398
  remaining activity at 3.75 µM: 92.6%

## C=C1C(=O)O[C@@H]2[C@H]3O[C@]3(C)CC/C=C(\C)CC[C@@H]12 [Parthenolide]
[1]
  remaining activity at 1.25 µM: 96.7%
[2]
  remaining activity at 3.75 µM: 97.3%

## Cc1coc2c1C(=O)C(=O)c1c-2ccc2c1CCCC2(C)C [Tanshinone IIA, tanshinone IIA]
[8]; Well no.=3178
  remaining activity at 1.25 µM: 105%
[8]; Well no.=4084
  remaining activity at 1.25 µM: 99.4%
3CLpro (nsp5)
  Inhibition of 3CLpro activity (gel-based): did not inhibit
SARS-CoV-2 PLpro [3]
  Inhibition of PLpro cleavage of the substrate (gel-based): inhibited cleavage, but only at the higher concentration
SARS-CoV-2 PLpro [3]; listed as tanshinone IIA
  Inhibition of PLpro cleavage of the substrate (gel-based): show inhibition
SARS-CoV-2; [11]
  EC50: 1150 µM
[9]; Well no.=3178
  remaining activity at 3.75 µM: 105%
[9]; Well no.=4084
  remaining activity at 3.75 µM: 89.9%
PLpro from SARS-CoV-1
  Inhibition of SARS-CoV-1 PLpro: better inhibitors of this enzyme than dihydrotanshinone I

## C[C@H]1COC2=C1C(=O)C(=O)c1c2ccc2c1CCCC2(C)C [Cryptotanshinone, cryptotanshinone]
[8]; Well no.=3557
  remaining activity at 1.25 µM: 100%
3CLpro (nsp5); 3 and 10 µM compound
  Inhibition of 3CLpro activity (gel-based): did not inhibit
SARS-CoV-2 PLpro [3]
  Inhibition of PLpro cleavage of the substrate (gel-based): show inhibition; also recorded: inhibited cleavage, but only at the higher concentration
SARS-CoV-2; [11]
  EC50: 223 µM
SARS-CoV-2; VERO E6 cells
  Concentration below which viral growth was not inhibited: ≥ 200 µM
[9]; Well no.=3557
  remaining activity at 3.75 µM: 103%
PLpro from SARS-CoV-1
  Inhibition of SARS-CoV-1 PLpro: better inhibitors of this enzyme than dihydrotanshinone I

## C[C@H](CCC(=O)O)[C@H]1CC[C@H]2[C@@H]3[C@@H](O)C[C@@H]4C[C@H](O)CC[C@]4(C)[C@H]3CC[C@]12C [Ursodiol]
[8]; Well no.=8332
  remaining activity at 1.25 µM: 89.1%
SARS-CoV-2 PLpro [3]
  Inhibition of PLpro cleavage of the substrate (gel-based): did not inhibit
[7]
  slope value (of slope value/control) 1.25 µM: 26 (324/440)
  slope value (of slope value/control) 3.75 µM: 55 (187/420)
  inhibition at 1.25 µM: 26%
  inhibition at 3.75 µM: 55%
[7]; screen hits, Table 1
  Z score: −7.78
[9]; Well no.=8332
  remaining activity at 3.75 µM: 90.6%
